ChEMBL document CHEMBL5465560, “Selectivity Literature for EUbOPEN Chemogenomic Library” (2024)

How the values were obtained:
[1] = target: T1, Serine/threonine-protein kinase DCLK1 (Homo sapiens) (UniProt O15075); assay: Selectivity interaction (KinomeScan (DiscoverX)) EUB0000229b DCLK1; conditions: at 10 µM
T1 sequence (whole entry): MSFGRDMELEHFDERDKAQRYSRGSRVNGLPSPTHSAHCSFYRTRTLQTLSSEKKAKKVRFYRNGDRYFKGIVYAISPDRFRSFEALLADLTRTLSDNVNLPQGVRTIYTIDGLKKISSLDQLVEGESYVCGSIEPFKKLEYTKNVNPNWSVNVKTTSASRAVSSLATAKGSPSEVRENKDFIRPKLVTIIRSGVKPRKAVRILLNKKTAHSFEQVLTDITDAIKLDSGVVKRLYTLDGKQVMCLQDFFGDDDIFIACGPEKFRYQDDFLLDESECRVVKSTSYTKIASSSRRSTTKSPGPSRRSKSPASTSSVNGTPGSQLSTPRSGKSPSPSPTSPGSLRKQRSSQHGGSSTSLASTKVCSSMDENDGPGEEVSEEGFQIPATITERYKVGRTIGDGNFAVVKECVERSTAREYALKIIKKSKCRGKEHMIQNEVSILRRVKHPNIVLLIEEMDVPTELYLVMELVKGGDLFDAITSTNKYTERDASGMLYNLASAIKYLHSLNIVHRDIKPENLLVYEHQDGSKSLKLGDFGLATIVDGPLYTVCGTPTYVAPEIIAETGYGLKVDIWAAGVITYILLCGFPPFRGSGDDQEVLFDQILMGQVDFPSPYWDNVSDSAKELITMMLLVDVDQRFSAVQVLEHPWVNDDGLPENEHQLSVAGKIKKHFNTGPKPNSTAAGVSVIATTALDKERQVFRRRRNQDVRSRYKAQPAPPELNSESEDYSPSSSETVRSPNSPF

[2] = target: Wee1-like protein kinase (Homo sapiens) (UniProt P30291); assay: Selectivity interaction (KinomeScan (DiscoverX)) EUB0000092b WEE1; conditions: at 10 µM
[3] = target: Serine/threonine-protein kinase Nek4 (Homo sapiens) (UniProt P51957); assay: Selectivity interaction (KinomeScan (DiscoverX)) EUB0000092b NEK4; conditions: at 10 µM
[4] = target: T2, NUAK family SNF1-like kinase 2 (Homo sapiens) (UniProt Q9H093); assay: Selectivity interaction (KinomeScan (DiscoverX)) EUB0000655a NUAK2; conditions: at 10 µM
T2 sequence (whole entry): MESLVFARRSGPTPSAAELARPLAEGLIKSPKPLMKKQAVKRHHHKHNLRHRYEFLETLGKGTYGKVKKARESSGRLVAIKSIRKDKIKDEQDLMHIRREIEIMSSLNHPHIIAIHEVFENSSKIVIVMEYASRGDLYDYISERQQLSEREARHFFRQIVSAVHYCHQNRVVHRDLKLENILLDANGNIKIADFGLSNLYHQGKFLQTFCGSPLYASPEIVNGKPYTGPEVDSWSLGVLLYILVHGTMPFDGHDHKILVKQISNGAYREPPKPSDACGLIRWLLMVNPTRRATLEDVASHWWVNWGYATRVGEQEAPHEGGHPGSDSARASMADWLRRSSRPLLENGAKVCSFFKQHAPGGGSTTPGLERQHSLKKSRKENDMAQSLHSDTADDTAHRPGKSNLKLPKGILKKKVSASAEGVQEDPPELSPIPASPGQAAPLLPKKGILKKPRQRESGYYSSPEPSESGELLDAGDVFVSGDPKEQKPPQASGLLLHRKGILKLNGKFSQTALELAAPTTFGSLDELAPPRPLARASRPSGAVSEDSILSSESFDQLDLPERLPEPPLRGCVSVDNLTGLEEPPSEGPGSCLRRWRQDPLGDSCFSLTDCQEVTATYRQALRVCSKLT

[5] = target: T3, Mitogen-activated protein kinase 15 (Homo sapiens) (UniProt Q8TD08); assay: Selectivity interaction (KinomeScan (DiscoverX)) EUB0001079a MAPK15; conditions: at 1 µM
T3 sequence (whole entry): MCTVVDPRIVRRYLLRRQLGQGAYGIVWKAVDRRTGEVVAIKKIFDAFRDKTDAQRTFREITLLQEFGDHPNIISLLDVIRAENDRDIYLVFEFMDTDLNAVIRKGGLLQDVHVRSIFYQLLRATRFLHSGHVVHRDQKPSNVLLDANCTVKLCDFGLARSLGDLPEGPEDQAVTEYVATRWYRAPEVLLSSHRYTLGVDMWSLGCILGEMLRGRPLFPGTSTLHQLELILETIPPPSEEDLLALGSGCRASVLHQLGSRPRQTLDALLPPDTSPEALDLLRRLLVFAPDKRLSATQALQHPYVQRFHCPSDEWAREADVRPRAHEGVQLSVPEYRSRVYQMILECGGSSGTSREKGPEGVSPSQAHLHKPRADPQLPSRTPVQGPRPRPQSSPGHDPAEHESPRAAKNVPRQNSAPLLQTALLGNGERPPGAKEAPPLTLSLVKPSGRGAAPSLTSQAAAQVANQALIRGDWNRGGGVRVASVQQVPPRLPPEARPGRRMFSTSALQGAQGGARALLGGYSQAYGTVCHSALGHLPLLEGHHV

[6] = target: Cyclin-dependent kinase 7 (Homo sapiens, UniProt P50613); assay: Selectivity interaction (Kinase panel (KiNativ target engagement assay in Jurkat cells)) EUB0001635a CDK7; format: cell-based; conditions: Selectivity number of off-targets 0.0, Selectivity number of targets 233.0, Source Knowledge https://www.sciencedirect.com/science/article/pii/S2451945619300674?via%3Dihub, at 1 µM
[7] = Selectivity interaction (NMDA Channel site assay : rat brain cortex ) EUB0000877a GRIN1
[8] = target: Mitogen-activated protein kinase 11 (Homo sapiens) (UniProt Q15759); assay: Selectivity interaction (KinomeScan (DiscoverX)) EUB0000595a MAPK11; conditions: at 10 µM
[9] = target: T4, Gamma-aminobutyric acid receptor subunit alpha-1 (Homo sapiens) (UniProt P14867); assay: Selectivity interaction (Eurofins CEREP Diversity Profile (receptors and ion channels)) EUB0000279b GABRA1; conditions: at 10 µM
T4 sequence (whole entry): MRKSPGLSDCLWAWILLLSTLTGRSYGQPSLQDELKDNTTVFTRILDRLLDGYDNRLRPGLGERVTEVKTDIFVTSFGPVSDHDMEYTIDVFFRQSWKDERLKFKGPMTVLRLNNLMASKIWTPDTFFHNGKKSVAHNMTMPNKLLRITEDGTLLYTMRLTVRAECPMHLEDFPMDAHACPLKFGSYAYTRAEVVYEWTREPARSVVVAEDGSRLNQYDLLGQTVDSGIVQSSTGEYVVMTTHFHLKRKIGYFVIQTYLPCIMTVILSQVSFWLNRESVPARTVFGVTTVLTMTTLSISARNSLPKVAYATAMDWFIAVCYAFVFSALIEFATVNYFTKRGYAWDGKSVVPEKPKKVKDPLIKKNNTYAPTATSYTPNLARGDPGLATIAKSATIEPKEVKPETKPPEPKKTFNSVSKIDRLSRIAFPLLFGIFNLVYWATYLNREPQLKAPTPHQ

Sequence of Mitogen-activated protein kinase 11 (Homo sapiens) (Q15759 whole entry): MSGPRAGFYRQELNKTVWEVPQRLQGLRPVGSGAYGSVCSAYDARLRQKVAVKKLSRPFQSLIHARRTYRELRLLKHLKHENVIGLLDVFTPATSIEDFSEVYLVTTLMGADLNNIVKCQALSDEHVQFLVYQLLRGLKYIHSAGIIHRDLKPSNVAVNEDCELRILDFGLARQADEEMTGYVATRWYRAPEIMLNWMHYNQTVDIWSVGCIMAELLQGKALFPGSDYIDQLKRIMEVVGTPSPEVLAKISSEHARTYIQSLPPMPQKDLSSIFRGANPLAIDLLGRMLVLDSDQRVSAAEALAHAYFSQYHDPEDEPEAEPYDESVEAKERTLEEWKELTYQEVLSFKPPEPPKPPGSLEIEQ
Sequence of Cyclin-dependent kinase 7 (P50613 whole entry): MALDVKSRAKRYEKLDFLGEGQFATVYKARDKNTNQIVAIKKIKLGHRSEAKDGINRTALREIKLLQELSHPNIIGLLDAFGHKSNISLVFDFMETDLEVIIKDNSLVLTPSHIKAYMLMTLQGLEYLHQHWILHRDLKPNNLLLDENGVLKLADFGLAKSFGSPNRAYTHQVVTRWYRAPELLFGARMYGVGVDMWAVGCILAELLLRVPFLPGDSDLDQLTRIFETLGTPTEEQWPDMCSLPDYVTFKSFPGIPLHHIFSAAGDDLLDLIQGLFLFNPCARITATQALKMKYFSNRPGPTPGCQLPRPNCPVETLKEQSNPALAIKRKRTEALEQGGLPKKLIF
Sequence of Serine/threonine-protein kinase Nek4 (Homo sapiens) (P51957 whole entry, looked up): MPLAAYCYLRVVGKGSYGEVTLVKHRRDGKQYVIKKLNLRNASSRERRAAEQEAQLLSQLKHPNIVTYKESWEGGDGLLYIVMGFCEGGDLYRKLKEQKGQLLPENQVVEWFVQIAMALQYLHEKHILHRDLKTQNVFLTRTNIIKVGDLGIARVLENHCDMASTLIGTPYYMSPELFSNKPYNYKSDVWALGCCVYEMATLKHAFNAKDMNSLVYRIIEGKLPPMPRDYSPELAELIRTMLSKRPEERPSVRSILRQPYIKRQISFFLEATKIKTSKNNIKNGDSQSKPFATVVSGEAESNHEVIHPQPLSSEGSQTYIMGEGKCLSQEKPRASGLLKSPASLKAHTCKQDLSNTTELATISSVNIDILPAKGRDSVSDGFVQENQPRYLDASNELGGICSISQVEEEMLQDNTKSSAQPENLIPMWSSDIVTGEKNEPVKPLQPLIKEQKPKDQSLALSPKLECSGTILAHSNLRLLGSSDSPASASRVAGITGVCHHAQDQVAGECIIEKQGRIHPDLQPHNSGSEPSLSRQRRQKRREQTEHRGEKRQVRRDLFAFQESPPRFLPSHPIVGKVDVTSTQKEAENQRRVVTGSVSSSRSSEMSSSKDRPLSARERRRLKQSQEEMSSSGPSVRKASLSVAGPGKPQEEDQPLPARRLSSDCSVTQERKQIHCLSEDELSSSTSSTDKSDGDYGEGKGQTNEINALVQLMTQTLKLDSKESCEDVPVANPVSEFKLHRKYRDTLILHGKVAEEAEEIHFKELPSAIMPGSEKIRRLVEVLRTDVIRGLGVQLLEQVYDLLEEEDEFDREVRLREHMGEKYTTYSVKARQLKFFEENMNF
Sequence of Wee1-like protein kinase (Homo sapiens) (P30291 whole entry, looked up): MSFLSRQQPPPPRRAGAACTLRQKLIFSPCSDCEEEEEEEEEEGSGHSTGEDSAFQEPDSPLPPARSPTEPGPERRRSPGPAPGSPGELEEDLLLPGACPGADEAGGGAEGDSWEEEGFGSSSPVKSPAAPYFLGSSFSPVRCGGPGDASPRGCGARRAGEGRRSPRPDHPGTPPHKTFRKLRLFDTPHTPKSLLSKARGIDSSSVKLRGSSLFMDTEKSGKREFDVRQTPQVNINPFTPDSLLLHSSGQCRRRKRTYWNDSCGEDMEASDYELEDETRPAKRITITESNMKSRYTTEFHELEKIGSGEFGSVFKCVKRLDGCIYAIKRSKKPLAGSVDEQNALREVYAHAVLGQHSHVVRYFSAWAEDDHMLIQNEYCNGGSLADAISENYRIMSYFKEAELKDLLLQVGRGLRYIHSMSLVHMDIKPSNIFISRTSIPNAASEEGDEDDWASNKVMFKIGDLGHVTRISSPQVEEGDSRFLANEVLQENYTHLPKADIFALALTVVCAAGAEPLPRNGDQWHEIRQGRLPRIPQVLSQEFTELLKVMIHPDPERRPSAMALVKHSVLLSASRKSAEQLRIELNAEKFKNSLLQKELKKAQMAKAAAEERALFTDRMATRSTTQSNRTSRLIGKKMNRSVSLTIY

COc1cc(N(C)c2ccnc3ccc(C(F)(F)F)cc23)cc(OC)c1OC
% binding [1]: 73%

CCC(=O)N1CCN(c2ccc(-n3c(=O)ccc4cnc5ccc(-c6cnc7ccccc7c6)cc5c43)cc2C(F)(F)F)CC1
% of control [2]: 42%
% of control [3]: 86%

CN(C)CCOc1ccc(-c2nc(-c3ccncc3)c(-c3ccc4c(c3)CC/C4=N\O)[nH]2)cc1
% of control [4]: 95%

Nc1cnc(N2CCc3cc(S(=O)(=O)Nc4c(F)cc(Cl)cc4F)cc(N4CCCC4=O)c32)nc1 [TP-020n]
% of control [5]: 84%

C=CC(=O)Nc1ccc(C(=O)Nc2[nH]nc3c2CN(C(=O)N[C@H](CN(C)C)c2ccccc2)C3(C)C)cc1
% of engagement [6]: 95.5%

CCC(=O)N1CC[C@H](Nc2ncnc3c2CN(c2cnc(OC)c(C(F)(F)F)c2)CC3)C1 [LENIOLISIB]
IC50 [7]: > 30 µM

COCC(=O)NC/C=C/c1ccc2ncnc(Nc3ccc(Oc4ccc(C)nc4)c(C)c3)c2c1 [CP-724714]
% of control [8]: 100%

CC(=O)c1cc(-c2ccccc2OCC2CC2)c2ncccn12
% of control [9]: 112%
